Measurements published in patent US8551999B2, “Heterocyclic compound and pharmaceutical composition thereof” (Otsuka Pharmaceutical Co., Ltd., priority 2007, dated 2013).

For `COc1ccccc1/C=C/CN1CCN(C(=O)c2cc3cc(Oc4ccc(NC(=O)c5ccc(C(F)(F)F)cc5)cn4)ccc3n2C)CC1.CS(=O)(=O)O` [Example 358, N-[6-(2-{4-[(E)-3-(2-Methoxyphenyl)allyl]piperazine-1-carbonyl}-1-methyl-1H-indol-5-yloxy)pyridin-3-yl]-4-trifluoromethyl-benzamide methanesulfonate], the melting point was 268 to 271 °C (dec.).

First: COc1ccc(CN2CCN(C(=O)c3cc4cc(Oc5ccc(NC(=O)c6ccc(C(F)(F)F)cc6)cn5)ccc4n3C)[C@H](C)C2)cc1.O=C(O)C(=O)O [Example 393, N-(6-{2-[(R)-4-(4-Methoxybenzyl)-2-methylpiperazine-1-carbonyl]-1-methyl-1H-indol-5-yloxy}pyridin-3-yl)-4-trifluoromethyl-benzamide oxalate]
Second: Br.CC(C)Oc1ccc(CN2CCN(C(=O)c3cc4cc(Oc5ccc(NC(=O)c6ccc(C(F)(F)F)cc6)cn5)ccc4n3C)CC2)cc1 [Example 460, N-(6-{2-[4-(4-Isopropoxybenzyl)piperazine-1-carbonyl]-1-methyl-1H-indol-5-yloxy}pyridin-3-yl)-4-trifluoromethylbenzamide hydrobromide]
The melting point of the first is lower: 161 to 163 °C for the first, 236.8 to 243.8 °C for the second.

First: CN(c1ccc(Oc2ccc3cc(C(=O)N4CCN(Cc5ccc(OCC(F)(F)F)cc5)CC4)[nH]c3c2)nc1)S(=O)(=O)c1ccc(Cl)c(Cl)c1.Cl
Second: Cc1ccc(S(=O)(=O)Nc2ccc(Oc3ccc4cc(C(=O)N5CCN(Cc6ccc(OCC(F)(F)F)cc6)CC5)n(C)c4c3)nc2)cc1 [Example 71, 4-Methyl-N-[6-(1-methyl-2-{4-[4-(2,2,2-trifluoroethoxy)benzyl]-piperazine-1-carbonyl}-1H-indol-6-yloxy)pyridin-3-yl]benzene-sulfonamide]
The melting point of the first is higher: 225.2 to 229.3 °C for the first, 198.3 to 200.3 °C for the second.

`Br.Cn1c(C(=O)N2CCN(Cc3ccc4c(c3)OCO4)CC2)cc2ccc(Oc3ccc(NC(=O)c4ccc(Cl)c(Cl)c4)cn3)cc21` [Example 257, N-{6-[2-(4-Benzo[1,3]dioxol-5-ylmethylpiperazine-1-carbonyl)-1-methyl-1H-indol-6-yloxy]pyridin-3-yl}-3,4-dichlorobenzamide hydrobromide] and `Br.CC(C)Oc1ccc(CN2CCN(C(=O)c3cc4ccc(Oc5ccc(NC(=O)c6ccc(Cl)c(Cl)c6)cn5)cc4n3C)CC2)cc1` [Example 255, 3,4-Dichloro-N-(6-{2-[4-(4-isopropoxybenzyl)piperazine-1-carbonyl]-1-methyl-1H-indol-6-yloxy}pyridin-3-yl)benzamide hydrobromide] cannot be ordered by melting point: 241.3 to 243.9 °C for the first, 239.7 to 243.5 °C for the second.

First: CN(C(=O)c1ccc(C(F)(F)F)cc1)c1cnc(Oc2ccc3c(c2)cc(C(=O)N2CCN(Cc4ccc(C#N)cc4)CC2)n3C)nc1.O=C(O)/C=C\C(=O)O [Example 383, N-(2-{2-[4-(4-Cyanobenzyl)piperazine-1-carbonyl]-1-methyl-1H-indol-5-yloxy}pyrimidin-5-yl)-N-methyl-4-trifluoromethylbenzamide maleate]
Second: COCc1ccc(CN2CCN(C(=O)c3cc4cc(Oc5ccc(N(C)C(=O)c6ccc(C(F)(F)F)cc6)cn5)ccc4n3C)CC2)cc1.O=C(O)/C=C\C(=O)O [Example 415, N-(6-{2-[4-(4-Methoxymethylbenzyl)piperazine-1-carbonyl]-1-methyl-1H-indol-5-yloxy}pyridin-3-yl)-N-methyl-4-trifluoromethyl-benzamide maleate]
The melting point of the first is higher: 154 to 156 °C for the first, 137 to 139 °C for the second.

First: Br.CCCOc1ccc(CN2CCN(C(=O)c3cc4ccc(Oc5ccc(N(C)C(=O)c6ccc(Cl)c(Cl)c6)cn5)cc4n3C)CC2)cc1 [Example 487, 3,4-Dichloro-N-methyl-N-(6-{1-methyl-2-[4-(4-propoxybenzyl)-piperazine-1-carbonyl]-1H-indol-6-yloxy}pyridin-3-yl)benzamide hydrobromide]
Second: COCc1ccc(CN2CCN(C(=O)c3cc4cc(Oc5ccc(N(C)C(=O)c6ccc(Cl)c(Cl)c6)cn5)ccc4n3C)CC2)cc1.O=C(O)/C=C\C(=O)O [Example 376, 3,4-Dichloro-N-(6-{2-[4-(4-methoxymethylbenzyl)piperazine-1-carbonyl]-1-methyl-1H-indol-5-yloxy}pyridin-3-yl)-N-methyl-benzamide maleate]
The melting point of the first is higher: 204.9 to 208.5 °C for the first, 100 to 101 °C for the second.

First: Br.C[C@H]1CN(C(=O)c2cc3ccc(Oc4ccc(NC(=O)c5ccc(OC(F)(F)F)cc5)cn4)cc3n2C)CCN1Cc1ccc(OCC(F)(F)F)cc1 [Example 293, N-[6-(1-Methyl-2-{(S)-3-methyl-4-[4-(2,2,2-trifluoroethoxy)-benzyl]piperazine-1-carbonyl}-1H-indol-6-yloxy)pyridin-3-yl]-4-trifluoromethoxybenzamide hydrobromide]
Second: Br.CN(C(=O)c1ccc(C(F)(F)F)cc1)c1ccc(Oc2ccc3cc(C(=O)N4CCN(Cc5ccc(OC(F)(F)F)cc5)CC4)n(C)c3c2)nc1 [Example 446, N-Methyl-N-(6-{1-methyl-2-[4-(4-trifluoromethoxybenzyl)-piperazine-1-carbonyl]-1H-indol-6-yloxy}pyridin-3-yl)-4-tri-fluoromethylbenzamide hydrobromide]
The melting point of the first is lower: 199.4 to 203.1 °C for the first, 237 to 239 °C for the second.

Compared with `Br.CN(c1ccc(C(F)(F)F)cc1)c1ccc(Oc2ccc3c(c2)cc(C(=O)N2CCN(Cc4ccncc4)CC2)n3C)nc1` [Example 337, (1-Methyl-5-{5-[methyl(4-trifluoromethylphenyl)amino]pyridin-2-yloxy}-1H-indol-2-yl)(4-pyridin-4-ylmethylpiperazin-1-yl)-methanone hydrobromide], `Br.Br.CN(C(=O)c1ccc(C(F)(F)F)cc1)c1ccc(Oc2ccc3c(c2)cc(C(=O)N2CCN(Cc4cccnc4)CC2)n3C)nc1` [Example 559, N-Methyl-N-{6-[1-methyl-2-(4-pyridin-3-ylmethylpiperazine-1-carbonyl)-1H-indol-5-yloxy]pyridin-3-yl}-4-trifluoromethyl-benzamide dihydrobromide] is higher in melting point: 167 to 174 °C for the first, 191 to 193 °C for the second.

Compared with `Br.CCOc1ccc(CN2CCN(C(=O)c3cc4cc(Oc5cc(C)c(NC(=O)c6ccc(Cl)c(Cl)c6)cn5)ccc4n3C)CC2)cc1` [Example 364, 3,4-Dichloro-N-(6-{2-[4-(4-ethoxybenzyl)piperazine-1-carbonyl]-1-methyl-1H-indol-5-yloxy}-4-methylpyridin-3-yl)benzamide hydrobromide], `Cl.Cn1c(C(=O)N2CCN(Cc3ccc(OCC(F)(F)F)cc3)CC2)cc2ccc(Oc3ncc(NC(=O)c4ccc(C(F)(F)F)cc4)cn3)cc21` is higher in melting point: 197 to 199 °C for the first, 250.8 to 254.2 °C for the second.

Compared with `COc1ccc(CN2CCN(C(=O)c3cc4cc(Oc5ccc(N(C)C(=O)c6ccc(C(F)(F)F)cc6O)cn5)ccc4n3C)CC2)cc1.O=C(O)C(=O)O` [Example 592, 2-Hydroxy-N-(6-{2-[4-(4-methoxybenzyl)piperazine-1-carbonyl]-1-methyl-1H-indol-5-yloxy}pyridin-3-yl)-N-methyl-4-trifluoromethyl-benzamide oxalate], `Cc1nc(Oc2ccc3c(c2)cc(C(=O)N2CCN(Cc4ccncc4)CC2)n3C)ccc1N(C)C(=O)c1ccc(C(F)(F)F)cc1.O=C(O)C(=O)O.O=C(O)C(=O)O` [Example 566, N-Methyl-N-{2-methyl-6-[1-methyl-2-(4-pyridin-4-ylmethyl-piperazine-1-carbonyl)-1H-indol-5-yloxy]pyridin-3-yl}-4-tri-fluoromethylbenzamide dioxalate] is lower in melting point: 171 to 173 °C for the first, 117 to 120 °C for the second.
